Data on 6 molecules can be found in patent publication US7414069B2, “Antituberculosis compounds, Hirsutellones A, B, and C” (National Center for Genetic Engineering & Biotechnology, …, priority 2004, dated 2008).

Data set [1] can be described thus: Cytotoxicity against BC cells (sulforhodamine B staining). The format is cell-based. The conditions noted are these: human, BC cells (breast cancer), starting concentration 20 μg/ml. The protocol:
(§1) Hirsutellones A, B and C were tested for cytotoxicity by incubating with Vero cells (African green monkey kidney cell line from American Type Culture Collection USA; ATCC # CCL-81). Each compound was dissolved in dimethyl sulfoxide and then diluted in the culture medium of the Vero cells (Eagle's Minimum Essential with 10% heat-inactivated fetal bovine serum and antibiotics). The Vero cells and the compound were incubated together in a 96-well microplate at a cell concentration of 1.9×10^4 cells/190 μl/well, in a CO2 incubator at 37° C. for 3 days.
(§2) The numbers of the cells in the wells were then determined by a staining method (Skehan, P., et al., J. Natl Cancer Inst., 82:1107-1112 (1990)). The cells were initially fixed by 50% cold trichloroacetic acid (TCA) at 4° C. for 30 minutes. The cells were then washed with water 4 times. After drying, the cells were stained with 0.05% sulforhodamine B in 1% acetic acid for 30 minutes, washed with ^1% acetic acid 4 times and dried at room temperature. Finally, 10 mM Tris-base pH 10 was added. The absorbance at 510 nm of test wells was measured by an ELISA microplate reader. The absorbance was proportionate to the number of the viable cells in the wells. The toxicity level of the compound was recorded as the concentration that rendered the number of viable cells to be less than half of the negative control wells, which contained the cells with DMSO but not the compound. Ellipticine was used as a positive control. The toxicity level of each compound against Vero cells was expressed as IC50.
(§3) Hirsutellones were also tested for cytotoxicity against multiple human cancer cell lines, to study the effects on human cells in vitro. The cancer cell lines included KB cells (oral epidermoid carcinoma; ATCC # CCL-17), BC cells (breast cancer) and NCI-H187 cells (lung cancer; ATCC # CRL-5804) The same protocol as that for the cytotoxicity assay against Vero cells was used, except for the starting compound concentration which was 20 μg/ml.

In data set [2] the test system is Mycobacterium tuberculosis H37Ra strain (ATCC 25166). Kind of data set: Microplate Alamar Blue Assay (MABA), antituberculous activity. The conditions noted are these: M. tuberculosis H37Ra, two-fold serial dilution from 50 μg/ml. The format is cell-based. The procedure:
Preparation of Mycobacteria Mycobacterium tuberculosis H37Ra strain (ATCC 25166) was grown in 100 ml of Middlebrook 7H9 broth supplemented with 0.2% glycerol, 1.0 g/l of casitone, 10% OADC, and 0.05% Tween 80. The complete medium was referred to as 7H9GC-Tween. The bacteria were incubated in 500-ml flasks on a rotary shaker at 200 rpm and 37° C. until the optical density at 550 nm reached 0.4-0.5. The bacteria were washed twice with phosphate-buffered saline and then suspended in 20 ml of phosphate-buffered saline. The suspension was passed through an 8-μm-pore-size filter to eliminate clumps. The number of bacteria in the filtrates were counted by plating the bacteria in Middlebrook 7H10 agar. The filtrates were stored at −80° C.
Microplate Alamar Blue Assays (MABA) Anti-tuberculous testing was performed in a 96-well microplate as previously described (Collins, L. and Franzblau, S. G., Antimicrob. Agents Chemother., 41:1004-1009 (1997)). Outer perimeter wells were filled with sterile water to prevent dehydration of the test wells. Crude extracts were initially diluted with dimethyl sulfoxide, and then were diluted to a concentration of 400 μg/ml in Middlebrook 7H9 medium containing 0.2% V/V glycerol and 1.0 g/l casitone (7H9GC). The wells in rows B to G in columns 2, 4, 5, 6, 8, 9, 10 of the microplate were filled with 100 μl of 7H9GC. The wells in column 11 were inoculated with 200 μl of the medium to serve as media controls (M). Bacteria (only) controls (B) were set-up in column 10. One hundred microliters of each crude extract solution (400 μg/ml) were added to three wells in one row in columns 2 (or 6), 3 (or 7) and 4 (or 8). One hundred microliters were transferred from column 4 (or 8) to column 5 (or 9), the contents of the wells in column 5 (or 9) were mixed well and then 100 μl of mixed medium were discarded. The wells in columns 2 and 6 served as test sample controls.
Frozen bacterial inocula were diluted 1:200 in 7H9GC medium. One hundred microliters of the bacteria were added to the wells in rows B to G in columns 3 (or 7), 4 (or 8), 5 (or 9) and 10, resulting in final bacterial titers of approximately 5×10^4 CFU/ml. The wells in column 10 served as bacteria (only) controls (B). Final concentrations of extracts were 200, 100 and 50 μg/ml in columns 3 (or 7), 4 (or 8) and 5 (or 9), respectively.
The plates were sealed with Parafilm and were incubated at 37° C. for 5 days. At day 6 of incubation, 20 μl of Alamar Blue reagent and 12.5 μl of 20% Tween 80 were added to well B10 (B) and B11 (M). The plates were re-incubated at 37° C. for 24 h. […] If the B wells became pink by 24 h, reagent was added to the entire plate. If the well remained blue, the additional M and B wells were tested daily until a color change occurred at which time reagents were added to all remaining wells. The microplates were resealed with Parafilm and were then incubated at 37° C. The results were recorded 24 h after adding reagent.
Blue color in the well was interpreted as no growth, reflecting the activity of the test compound in the well. A pink color was scored as growth and reflected the lack of activity of the test compound. A few wells appeared violet after 24 h of incubation, but they invariably changed to pink after extra day of incubation and thus were scored as growth (while the adjacent blue wells remained blue). […]

The nature of data set [3]: Cytotoxicity against KB cells (sulforhodamine B staining). The format is cell-based. The conditions noted are these: human, KB cells (oral epidermoid carcinoma, ATCC CCL-17), starting concentration 20 μg/ml. The protocol:
as §1, §2, §3

The nature of data set [4]: Cytotoxicity against Vero cells (sulforhodamine B staining). It counts as cell-based. The conditions noted are these: African green monkey, Vero cells (ATCC CCL-81), 37° C. The protocol: as §1, §2
Data set [5] is described as follows: Cytotoxicity against NCI-H187 cells (sulforhodamine B staining). The format is cell-based. Conditions: human, NCI-H187 cells (lung cancer, ATCC CRL-5804), starting concentration 20 μg/ml. The protocol: as §1, §2, §3

Converted amounts (≈) assume the structure as drawn.

Consider `C=CC1C=CC2C3CC(C)CCC3C3Oc4ccc(cc4)CC4(O)CC(C(=O)N4)C(=O)C1C23` (centres unmarked) [Hirsutellone B], for which the melting point was 261 to 263 °C (dec.). Also, in data set [1], the IC50 at 3 days was more than 20 µg/mL. Further, in data set [2], 0.78 µg/mL (≈ 1.74 µM) was the least that counted as inhibitory (MIC). Also, the IC50 at 3 days in data set [3] was more than 20 µg/mL. This molecule also yielded an IC50 at 3 days in data set [4] of more than 50 µg/mL. For the same molecule, the IC50 at 3 days in data set [5] is 6 µg/mL (≈ 13.4 µM).

`NC[C@H]1O[C@H](O[C@H]2[C@H](O)[C@@H](O[C@H]3O[C@H](CO)[C@@H](O)[C@H](N)[C@H]3O)[C@H](N)C[C@@H]2N)[C@H](O)[C@@H](O)[C@@H]1O` [kanamycin, reference compound] came in with an MIC in data set [2] of 2.5 µg/mL (≈ 5.16 µM).

In the case of `C=CC1C=CC2C3CC(C)CCC3C3Oc4ccc(cc4)CC4C(=O)NC(=O)C4C(=O)C1C23` (centres unmarked) [Hirsutellone A], the IC50 at 3 days was more than 20 µg/mL in data set [1], more than 20 µg/mL in data set [3], more than 50 µg/mL in data set [4] and more than 20 µg/mL in data set [5]. The minimum inhibitory concentration (MIC) in data set [2] was found to be 0.78 µg/mL (≈ 1.75 µM).

For `C=CC1C=CC2C3CC(C)CCC3C3Oc4ccc(cc4)CC4(O)NC(=O)C5(OC45)C(=O)C1C23` (centres unmarked) [Hirsutellone C], the melting point was 234 to 235 °C (dec.). Also, the IC50 at 3 days in data set [1] amounted to 3.2 µg/mL (≈ 6.93 µM). In data set [2], the MIC came out at 0.78 µg/mL (≈ 1.69 µM). In data set [3], this molecule registered an IC50 at 3 days of 4.6 µg/mL (≈ 9.97 µM). It took 12 µg/mL (≈ 26 µM) to reach half-maximal inhibition in data set [4] (IC50 at 3 days). This molecule yielded an IC50 at 3 days in data set [5] of 8.3 µg/mL (≈ 18 µM).

For the molecule `Cc1c2ccncc2c(C)c2c1[nH]c1ccccc12` [Ellipticine, reference compound], the IC50 at 3 days amounted to 1.5 µg/mL (≈ 6.09 µM) in data set [1], 1.3 µg/mL (≈ 5.28 µM) in data set [3], 0.4 µg/mL (≈ 1.62 µM) in data set [4] and 0.39 µg/mL (≈ 1.58 µM) in data set [5].

In the case of `NNC(=O)c1ccncc1` [isoniazid, reference compound], the MIC in data set [2] amounted to 0.04 µg/mL (≈ 0.292 µM).
